Test results reported in US11786570B2, “Dermatological product” (SYMRISE AG, priority 2018, dated 2023).
Entries after “also recorded” stand apart in the source; their conditions may differ. Marks after values point to notes of the source that are not given here.

Key:
human sebaceous glands [1] = test: Resazurin viability test of micro-dissected human sebaceous glands, day 6 versus day 1; assay type: cell-based
Experimental: To better understand the response to the extract, a viability test was performed in parallel at day 1 and day 6 of organ culture. Resazurin was added to the wells (1:11) and let incubate for 2 hours. At the end of the incubation an aliquot of the medium was read with a fluorometer (excitation: 560 nm, emission: 590 nm). The medium was then replaced with normal medium for 2 hours in order to eliminate residual resazurin. After this the medium was replaced again with medium containing the test samples. The viability in each well was measured as the difference in percentage between day 6 and day 1.

human sebaceous glands [2] = test: Total lipid (sebum) content of micro-dissected ex vivo human sebaceous glands in organ culture, lipids normalized on proteins; assay type: cell-based; settings: for Effect on total lipid / sebum content of sebaceous glands, in words: day 6; for Reduction of lipids at day 6 versus untreated; Total lipid reduction: Example 4; for Reduction of lipids at day 6 versus untreated; Lipid reduction: Example 8
Experimental: Organ culture of human sebaceous glands micro-dissected from human skin explants was performed to evaluate the modulatory activity of Tetraselmis suecica extract prepared according to the description given in Example 1 on the sebum level. The extract is employed in the dried form.
(§1) After removal of the epidermis of the full thickness skin sample, the sebaceous glands were carefully removed using micro-scissors and scalpel. The micro-dissected sebaceous glands were then pooled in groups of 8 and cultured up to day 6 in a 24 well plate immersed in 500 μl of modified Williams'E medium. After 24 hours of acclimation the culture medium was changed and substituted with the medium containing the extract to be tested. The medium was renewed at day 3 and 5 of culture. At day 6 the glands were collected and used for the quantification of lipids and proteins.
To do so, each sebaceous glands group was homogenized in 100 μl of isopropyl alcohol to extract lipids and let the proteins undissolved. After centrifugation the supernatant containing the extracted sebum was collected and analyzed. The remaining pellet was dried using a vacuum dry evaporator and then minced in presence of 50 μl of protein lysis buffer. After an appropriate incubation time, this extractive mixture was centrifuged, and the supernatant was collected and analyzed. The lipids dissolved in isopropyl alcohol and the proteins dissolved in the lysis buffer were quantified by infrared spectroscopy using a Direct Detect IR Spectrometer (Millipore). The total lipid amount was obtained by normalizing the quantified lipids upon the quantified proteins (i.e. mg of lipids/mg of proteins). The amounts of normalized lipids, i.e. the sebum produced by each group of sebaceous glands, obtained from the treated groups was compared to that of the untreated control group and the modulatory activity was calculated in percentage. As positive control, a 5 μM Capsaicin treatment was included in the experimental design. Capsaicin is an active component of chili peppers suitable to inhibit sebogenesis [T6th et al., J. Invest. Derm. (2009), 129: 329-339]. For statistical analysis, differences among groups were evaluated by one-way anova with permutation test followed by Dunnett's permutation test.
To evaluate donor responsiveness and interindividual variability the extract was tested on sebaceous glands obtained from skin samples of three different donors.
The Organ culture of human sebaceous glands micro-dissected from human skin explants was performed to evaluate the modulatory activity of mannitol on the sebum level.
as §1, with “sample” for “extract”
To do so, each sebaceous glands group was homogenized in 100 μl of isopropyl alcohol to extract lipids and let the proteins undissolved. After centrifugation the supernatant containing the extracted sebum was collected and analyzed. The remaining pellet was dried using a vacuum dry evaporator and then minced in presence of 50 μl of protein lysis buffer. After an appropriate incubation time, this extractive mixture was centrifuged, and the supernatant was collected and analyzed. The lipids dissolved in isopropyl alcohol and the proteins dissolved in the lysis buffer were quantified by infrared spectroscopy using a Direct Detect IR Spectrometer (Millipore). The total lipid amount was obtained by normalizing the quantified lipids upon the quantified proteins (i.e. mg of lipids/mg of proteins). […]

OCLN [Occludin] = test: Gene expression by RT-qPCR in nHEK keratinocytes; assay type: cell-based, human; settings: 0.002%
Experimental: (§2) Neonatale humane epidermal keratinocytes (nHEK) were cultivated in EpiLife medium (Gibco) including HKGS-Kit (Gibco) at 5% CO2 at 37° C. according to the supplier instructions.
(§3) […] Genomic target expression levels in extract treated cells were measured by RT-qPCR comparing to medium treatment.
(§4) RNA isolation took place using RNeasy® Mini Kit, Qiagen. Total RNA concentrations were measured using μCuvetteG 1.0 and BioPhotometer, Eppendorf by measuring the absorption at 260 nm. Purity control values, like E260/280 and E 260/230 were calculated simultaneously. Reverse transcription was done using high capacity RNA-to-cDNA Kit, Applied Biosystems, according to the supplier instructions. Samples were treated in the PCR Thermocycler, Biometra.
(§5) For the fast real-time PCR, cDNA was diluted with RNase-free water and TaqMan™ Fast Universal PCR Master Mix, Applied biosystems. Quantitaive Real-Time PCR was done using StepOne Plus Fast Real Time PCR Instrument, Applied biosystems. Analysis was done with StepOne-Software and 2-ΔCT Method (normalized to endogenous control HTRP1 expression).
(§6) For upregulations RQ values ≥2.0 and for downregulations RQ values <0.5 are considered to be relevant.

CGN [Cingulin] = test: Gene expression by RT-qPCR in nHEK keratinocytes; assay type: cell-based, human; settings: 0.002%
Experimental: as §2, §3, §4, §5, §6

CLDN1 [Claudin 1] = test: Gene expression by RT-qPCR in nHEK keratinocytes; assay type: cell-based, human; settings: 0.002%
Experimental: as §2, §3, §4, §5, §6

CLDN7 [Claudin 7] = test: Gene expression by RT-qPCR in nHEK keratinocytes; assay type: cell-based, human
Experimental: Neonatale humane epidermal keratinocytes (nHEK) were cultivated in EpiLife medium (Gibco) including HKGS-Kit (Gibco) at 5% CO2 at 37° C. according to the supplier instructions. […] Genomic target expression levels in extract treated cells were measured by RT-qPCR comparing to medium treatment. RNA isolation took place using RNeasy® Mini Kit, Qiagen. Total RNA concentrations were measured using μCuvetteG 1.0 and BioPhotometer, Eppendorf by measuring the absorption at 260 nm. Purity control values, like […]/280 and E 260/230 were calculated simultaneously. Reverse transcription was done using high capacity RNA-to-cDNA Kit, Applied Biosystems, according to the supplier instructions. Samples were treated in the PCR Thermocycler, Biometra. For the fast real-time PCR, cDNA was diluted with RNase-free water and TaqManTM Fast Universal PCR Master Mix, Applied biosystems. Quantitaive Real-Time PCR was done using StepOne Plus Fast Real Time PCR Instrument, Applied biosystems. Analysis was done with StepOne-Software and 2-ΔCT Method (normalized to endogenous control HTRP1 expression).

[3] = Water solubility (statement); assay type: physicochemical

Structure (SMILES): OC[C@@H](O)[C@@H](O[C@@H]1O[C@H](CO)[C@H](O)[C@H](O)[C@H]1O)[C@H](O)[C@@H](O)CO [lactitol, Lactitol]
- Viability (human sebaceous glands [1]; Example 7, 0.05 ppm): 99%
- Viability (human sebaceous glands [1]; Example 7, 0.5 ppm): 100%
- Reduction of lipids at day 6 versus untreated (human sebaceous glands [2]; Example 7, 0.05 ppm): −22%
- Reduction of lipids at day 6 versus untreated (human sebaceous glands [2]; Example 7, 0.5 ppm): −22%
- Effect on total lipid / sebum content of sebaceous glands, in words (human sebaceous glands [2]; ex vivo human sebaceous glands): significantly reduce the lipid content

Structure (SMILES): O[C@H]1[C@H](O)[C@@H](O)[C@H](O)[C@@H](O)[C@H]1O [inositol, myo-Inosiitol]
- Viability (human sebaceous glands [1]; Example 7, 0.05 ppm): 91%
- Viability (human sebaceous glands [1]; Example 7, 0.5 ppm): 97%
- Reduction of lipids at day 6 versus untreated (human sebaceous glands [2]; Example 7, 0.05 ppm): −32%
- Reduction of lipids at day 6 versus untreated (human sebaceous glands [2]; Example 7, 0.5 ppm): −10%
- Effect on total lipid / sebum content of sebaceous glands, in words (human sebaceous glands [2]; ex vivo human sebaceous glands): significantly reduce the lipid content

Structure (SMILES): OC[C@@H](O)[C@@H](O)[C@H](O)[C@H](O)CO [mannitol, Mannitol]
- Viability (human sebaceous glands [1]; Example 4, 0.03 ppm): 81%
- RQ value (OCLN [Occludin]): 1.0
- RQ value (CGN [Cingulin]): 1.0
- RQ value (CLDN1 [Claudin 1]): 0.5
- Reduction of lipids at day 6 versus untreated; Total lipid reduction (human sebaceous glands [2]; 0.03 ppm): −17%
- Sebum/lipid reducing efficacy compared with positive control 5 μM capsaicin, in words (human sebaceous glands [2]; ex vivo human sebaceous glands): less effectively than 5 μM capsaicin
- Effect on total lipid / sebum content of sebaceous glands, in words (human sebaceous glands [2]; ex vivo human sebaceous glands): significantly reduces the lipid content; also recorded: significantly reduced the sebum content
- claudin 7 gene regulation, in words (CLDN7 [Claudin 7]): upregulate
- RQ value (CLDN7 [Claudin 7]; 0.002%): 2.0

Structure (SMILES): OC[C@@H](O)[C@@H](O)CO [erythritol, meso-Erythritol]
- Viability (human sebaceous glands [1]; Example 6, 0.05 ppm): 82%
- Viability (human sebaceous glands [1]; Example 6, 0.5 ppm): 77%
- Reduction of lipids at day 6 versus untreated (human sebaceous glands [2]; Example 6, 0.05 ppm): −26%
- Reduction of lipids at day 6 versus untreated (human sebaceous glands [2]; Example 6, 0.5 ppm): −36%
- Effect on total lipid / sebum content of sebaceous glands, in words (human sebaceous glands [2]; ex vivo human sebaceous glands): significantly reduces the lipid content

Structure (SMILES): NC(=O)c1cccnc1 [niacinamide, Niacinamide, reference compound]
- water solubility, in words [3]: readily water soluble
- Viability (human sebaceous glands [1]; Example 8, 0.5 ppm): 100%
- Reduction of lipids at day 6 versus untreated; Lipid reduction (human sebaceous glands [2]; 0.5 ppm): 2%
- Effect on total lipid / sebum content of sebaceous glands, in words (human sebaceous glands [2]; ex vivo human sebaceous glands): did not show a relevant lipid reducing activity

Structure (SMILES): OC[C@@H](O)[C@@H](O)[C@H](O)[C@@H](O)CO [sorbitol, D-Sorbitol]
- Viability (human sebaceous glands [1]; Example 6, 0.05 ppm): 80%
- Viability (human sebaceous glands [1]; Example 6, 0.5 ppm): 78%
- Viability (human sebaceous glands [1]; Example 8, 0.5 ppm): 95%
- Reduction of lipids at day 6 versus untreated (human sebaceous glands [2]; Example 6, 0.05 ppm): −16%
- Reduction of lipids at day 6 versus untreated (human sebaceous glands [2]; Example 6, 0.5 ppm): −40%
- Reduction of lipids at day 6 versus untreated; Lipid reduction (human sebaceous glands [2]; 0.5 ppm): 11* %
- Effect on total lipid / sebum content of sebaceous glands, in words (human sebaceous glands [2]; ex vivo human sebaceous glands): significantly reduces the lipid content
- Effect on total lipid / sebum content of sebaceous glands, in words (human sebaceous glands [2]; ex vivo human sebaceous glands, listed as Sorbitol): exhibited efficacy in the expected range when compared to capsaicin

Structure (SMILES): OC[C@@H](O)[C@H](O)CO [threitol, D-Threitol]
- Viability (human sebaceous glands [1]; Example 7, 0.05 ppm): 84%
- Viability (human sebaceous glands [1]; Example 7, 0.5 ppm): 82%
- Reduction of lipids at day 6 versus untreated (human sebaceous glands [2]; Example 7, 0.05 ppm): −31%
- Reduction of lipids at day 6 versus untreated (human sebaceous glands [2]; Example 7, 0.5 ppm): −47%
- Effect on total lipid / sebum content of sebaceous glands, in words (human sebaceous glands [2]; ex vivo human sebaceous glands): significantly reduce the lipid content

Structure (SMILES): OC[C@@H](O)[C@@H](O[C@H]1O[C@H](CO)[C@@H](O)[C@H](O)[C@H]1O)[C@H](O)[C@@H](O)CO [maltitol, Maltitol]
- Viability (human sebaceous glands [1]; Example 7, 0.05 ppm): 79%
- Viability (human sebaceous glands [1]; Example 7, 0.5 ppm): 80%
- Reduction of lipids at day 6 versus untreated (human sebaceous glands [2]; Example 7, 0.05 ppm): −44%
- Reduction of lipids at day 6 versus untreated (human sebaceous glands [2]; Example 7, 0.5 ppm): −39%
- Effect on total lipid / sebum content of sebaceous glands, in words (human sebaceous glands [2]; ex vivo human sebaceous glands): significantly reduce the lipid content

Structure (SMILES): COc1cc(CNC(=O)CCCC/C=C/C(C)C)ccc1O [Capsaicin, reference compound]
- Viability (human sebaceous glands [1]; Example 3, Donor 1, 5 μM (1.5 ppm)): 92%
- Viability (human sebaceous glands [1]; Example 3, Donor 2, 5 μM (1.5 ppm)): 99%
- Viability (human sebaceous glands [1]; Example 3, Donor 3, 5 μM (1.5 ppm)): 85%
- Viability (human sebaceous glands [1]; Example 4, 5 μM (1.5 ppm)): 82%
- Viability (human sebaceous glands [1]; Example 6, 5 μM (1.5 ppm)): 89%
- Viability (human sebaceous glands [1]; Example 7, 5 μM (1.5 ppm)): 91%
- Viability (human sebaceous glands [1]; Example 8, 5 μM (1.5 ppm)): 95%
- Reduction of lipids at day 6 versus untreated; Total lipid reduction (human sebaceous glands [2]; 5 μM (1.5 ppm)): −25%
- Reduction of lipids at day 6 versus untreated (human sebaceous glands [2]; Example 6, 5 μM (1.5 ppm)): −21%
- Reduction of lipids at day 6 versus untreated (human sebaceous glands [2]; Example 7, 5 μM (1.5 ppm)): −20%
- Reduction of lipids at day 6 versus untreated; Lipid reduction (human sebaceous glands [2]; 5 μM (1.5 ppm)): 13* %

Structure (SMILES): OC[C@@H](O)[C@H](O)[C@@H](O)CO [xylitol, Xylitol]
- Viability (human sebaceous glands [1]; Example 6, 0.05 ppm): 86%
- Viability (human sebaceous glands [1]; Example 6, 0.5 ppm): 80%
- Reduction of lipids at day 6 versus untreated (human sebaceous glands [2]; Example 6, 0.05 ppm): −23%
- Reduction of lipids at day 6 versus untreated (human sebaceous glands [2]; Example 6, 0.5 ppm): −46%
- Effect on total lipid / sebum content of sebaceous glands, in words (human sebaceous glands [2]; ex vivo human sebaceous glands): significantly reduces the lipid content
